{"source": "patent US20140051662A1", "about": "(priority 2011, published 2014)", "key": {"[1]": {"test_system": "LP1 cells (t(4;14) positive)", "test": "thymidine proliferation assay, LP1", "format": "cell-based, human", "experimental": "(§1) Multiple myeloma cell lines RPMI 8226, U266 (t(4;14) negative) and OPM2, LP1, NCI-H929 (t(4;14) positive) were cultured in RPMI medium (Gibco-BRL) supplemented with 10% fetal calf serum (FCS, Life Technologies), 100 units/ml penicillin, 100 μg/ml streptomycin, except LP1 which were cultured in DMEM (Gibco-BRL). Bone marrow plasma cells were CD138-selected using MACS systems (Miltenyi Biotec, Germany). […] [6-^3H] thymidine (Amersham Biosciences, UK) was added (1 μCi/well) for 16 hours. Thymidine incorporation was measured by liquid scintillation counting (Wallace, PerkinElmer). All experiments were performed in triplicate."}, "[2]": {"test_system": "U266 cells (t(4;14) negative)", "test": "thymidine proliferation assay, U266", "format": "cell-based, human", "experimental": "as §1"}, "[3]": {"test_system": "intrinsic PDGF receptor", "test": "tyrosine phosphorylation in Ba/F3 cells (Western), PDGF receptor positive control", "format": "cell-based", "details": "FIG. 1B"}, "[4]": {"test_system": "FGFR3 expressing Ba/F3 cells", "test": "proliferation of FGFR3 expressing Ba/F3 cells", "format": "cell-based, mouse", "details": "FIG. 1A, dose-dependent", "experimental": "(§2) [6-^3H] thymidine (Amersham Biosciences, UK) was added (1 μCi/well) for 16 hours. Thymidine incorporation was measured by liquid scintillation counting (Wallace, PerkinElmer). All experiments were performed in triplicate."}, "[5]": {"test_system": "human cord blood mast cells", "details": "cited from earlier work"}, "[6]": {"test_system": "NCI-H929 cells (t(4;14) positive)", "test": "thymidine proliferation assay, NCI-H929", "format": "cell-based", "details": "Homo sapiens", "experimental": "as §1"}, "[7]": {"test_system": "patients with relapsed or refractory t(4;14) multiple myeloma"}, "[8]": {"test_system": "patients with relapsing or refractory multiple myeloma", "test": "open-label phase 2 study, masitinib plus bortezomib/dexamethasone (VD)", "format": "in vivo, human", "text": "Initially, this study was to investigate the safety and efficacy of masitinib administered in combination with the chemotherapy regimens of masitinib plus (dexamethasone/bortezomib/thalidomide); or masitinib plus (dexamethasone/bortezomib/adriamycin). However, after early preliminary results both these latter arms were eliminated from the study due to a tendency of higher incidence of adverse events or because these were not considered a gold standard treatment in this pathology. […] Velcade: 1.3 mg/m^2 intravenously; Level 1: Days 1 and 4; Level 2: Days 1, 4, 8 and 11 Dexamethasone: 40 mg/day, orally; Level 1: Days 1 to 4; Level 2: Days 1 to 4, 8 and 11 Adriamycin: 9 mg/m2 intravenously (bolus or perfusion); Days 1 to 4 Thalidomide: 200 mg/day, orally, once daily in the evening […] The two dosing regimens of the bortezomib plus dexamethasone combination (VD) were successively tested. After the observation that a low level of VD was well tolerated in four patients, the following patients were treated at a higher level. Included were patients with refractory or relapsing multiple myeloma: • With t(4; 14) translocation regardless of FGFR3 status, i.e. expressing FGFR3 or not; • or without a t(4; 14) translocation and relapsing within 1 year after the first line therapy including or not bone marrow transplantation. All patients were to receive combination therapy for the planned number of cycles or until disease progression, after which they could continue with masitinib plus dexamethasone in an extension phase."}, "[9]": {"molecular_target": "Lyn (Homo sapiens, UniProt P07948)", "sequence (P07948 whole entry, species assumed)": "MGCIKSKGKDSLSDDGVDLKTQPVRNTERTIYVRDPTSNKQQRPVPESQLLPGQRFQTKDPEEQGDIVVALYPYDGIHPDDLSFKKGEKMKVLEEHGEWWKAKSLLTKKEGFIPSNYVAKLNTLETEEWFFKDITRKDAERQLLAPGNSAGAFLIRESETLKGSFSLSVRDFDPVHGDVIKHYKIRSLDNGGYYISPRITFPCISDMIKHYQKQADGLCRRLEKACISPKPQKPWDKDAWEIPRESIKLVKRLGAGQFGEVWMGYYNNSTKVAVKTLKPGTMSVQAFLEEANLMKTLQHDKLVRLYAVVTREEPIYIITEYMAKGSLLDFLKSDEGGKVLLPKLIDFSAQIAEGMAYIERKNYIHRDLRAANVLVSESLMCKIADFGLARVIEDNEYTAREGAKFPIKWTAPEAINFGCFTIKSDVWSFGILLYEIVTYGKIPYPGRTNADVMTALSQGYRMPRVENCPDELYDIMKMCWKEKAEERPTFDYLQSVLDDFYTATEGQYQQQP", "test": "inhibition of Lyn kinase"}, "[10]": {"test_system": "fresh plasma cells from patients with t(4;14) multiple myeloma expressing FGFR3", "test": "proliferation of fresh plasma cells from patients", "format": "cell-based, human", "experimental": "as §2, with “Bone marrow plasma cells were CD138-selected using MACS systems (Miltenyi Biotec, Germany). […] [6-^3H]” for “[6-^3H]”"}, "[11]": {"test_system": "OPM2 cells (t(4;14) positive)", "test": "thymidine proliferation assay, OPM2", "format": "cell-based, human", "experimental": "as §1"}, "[12]": {"test_system": "RPMI 8226 cells (t(4;14) negative)", "test": "thymidine proliferation assay, RPMI 8226", "format": "cell-based, human", "experimental": "as §1"}, "[13]": {"test_system": "intracellular domain of FGFR3", "test": "tyrosine phosphorylation in Ba/F3 cells (Western), FGFR3", "format": "cell-based, human", "details": "masitinib 1 μM, 10 ng/ml FGF"}, "[14]": {"details": "beyond first relapse, aggressive relapse"}, "[15]": {"details": "beyond first relapse, non-aggressive relapse"}, "[16]": {"details": "masitinib plus dexamethasone combination therapy"}, "[17]": {"details": "more than two previous lines (beyond first relapse)"}, "[18]": {"details": "second line of treatment (first relapse)"}, "[19]": {"details": "13 patients receiving VD as second line therapy (first relapse)"}, "[20]": {"details": "cohort VD Level 2, two patients"}, "[21]": {"details": "masitinib plus VD, all 17 patients"}}, "note": "Where two headings read alike, the source gives them in different places.", "data": [{"molecule": "Cc1ccc(NC(=O)c2ccc(CN3CCN(C)CC3)cc2)cc1Nc1nc(-c2cccnc2)cs1", "note": "[masitinib, 4-(4-methylpiperazin-1-ylmethyl)-N-[4-methyl-3-(4-pyridin-3ylthiazol-2-ylamino)phenyl]benzamide]", "values": [{"measurement": "inhibition at 2 µM", "setting": "[1]; Homo sapiens, LP-1", "result": 50, "unit": "%"}, {"measurement": "anti-proliferative interaction with dexamethasone", "setting": "[1]; combination with dexamethasone, FGF-activated LP1", "result": "synergy"}, {"measurement": "reduction of proliferation compared to dexamethasone alone", "setting": "[1]; masitinib added to dexamethasone, 5 times less dexamethasone, FGF-activated LP1", "result": 2, "unit": "fold"}, {"measurement": "proliferation", "setting": "[2]; U266, t(4;14) negative", "result": "significantly and dose-dependently decreased"}, {"measurement": "anti-proliferative interaction with dexamethasone", "setting": "[2]; combination with dexamethasone, U266", "result": "synergy"}, {"measurement": "reduction of proliferation compared to dexamethasone alone", "setting": "[2]; masitinib added to dexamethasone, 5 times less dexamethasone, U266", "result": 7, "unit": "fold"}, {"measurement": "phosphorylation of the PDGF receptor", "setting": "[3]", "result": "Inhibition"}, {"measurement": "growth of BaF3 cell expressing the intracellular kinase domain of FGFR3", "setting": "[4]", "result": "inhibited"}, {"measurement": "FcεRI-mediated degranulation", "setting": "[5]", "result": "inhibition"}, {"measurement": "inhibition at 2 µM", "setting": "[6]", "result": 50, "unit": "%"}, {"measurement": "patients with rashes", "setting": "[7]; 2 patients", "result": 8.3, "unit": "%"}, {"measurement": "patients with suspected diarrhea", "setting": "[7]; 10 patients", "result": 41.7, "unit": "%"}, {"measurement": "patients with drug-related edema", "setting": "[7]; 13 patients", "result": 54.2, "unit": "%"}, {"measurement": "patients with nausea and/or vomiting", "setting": "[7]; 16 patients, suspected AE", "result": 66.7, "unit": "%"}, {"measurement": "patients with suspected masitinib-related (or not assessable) adverse events", "setting": "[7]; 21 of 24 patients", "result": 87.5, "unit": "%"}, {"measurement": "suspected masitinib-related (or not assessable) adverse events, total number", "setting": "[7]; 24 patients", "result": 145}, {"measurement": "median overall survival", "setting": "[7]; all 24 patients", "result": 19.8, "unit": "months"}, {"measurement": "median progression free survival (PFS)", "setting": "[7]; all 24 patients", "result": 3.9, "unit": "months"}, {"measurement": "survival", "setting": "[7]; all patients with unsatisfactory response to previous treatment or in first relapse", "result": "at least 1 year"}, {"measurement": "median overall survival", "setting": "[7]; [14]", "result": 8.1, "unit": "months"}, {"measurement": "median progression free survival (PFS)", "setting": "[7]; [14]", "result": 2.1, "unit": "months"}, {"measurement": "median overall survival", "setting": "[7]; [15]", "result": 25.4, "unit": "months"}, {"measurement": "median progression free survival (PFS)", "setting": "[7]; [15]", "result": 3.9, "unit": "months"}, {"measurement": "patients who discontinued because of AEs suspected to be masitinib-related", "setting": "[7]; five patients", "result": 20.8, "unit": "%"}, {"measurement": "patients with severe edema", "setting": "[7]; in vivo", "result": "two"}, {"measurement": "patients with severe nausea", "setting": "[7]; in vivo", "result": "Three"}, {"measurement": "patients with Minor Response", "setting": "[7]; [16]", "result": 5, "unit": "patients"}, {"measurement": "patients with very good partial response (IMWG criteria)", "setting": "[7]; [16]", "result": "one"}, {"measurement": "response in patients with aggressive relapse", "setting": "[7]; [16]", "result": "No response"}, {"measurement": "median overall survival", "setting": "[7]; [17]", "result": 8.6, "unit": "months"}, {"measurement": "median progression free survival (PFS)", "setting": "[7]; [17]", "result": 3.0, "unit": "months"}, {"measurement": "patients still alive after 2 years", "setting": "[7]; overall", "result": 43.5, "unit": "%"}, {"measurement": "median overall survival", "setting": "[7]; [18]", "result": 35.7, "unit": "months"}, {"measurement": "median progression free survival (PFS)", "setting": "[7]; [18]", "result": 9.1, "unit": "months"}, {"measurement": "patients with at least one suspected masitinib-related (or not assessable) serious adverse event", "setting": "[7]; seven patients", "result": 29.2, "unit": "%"}, {"measurement": "patients with severe suspected adverse events (non-hematological grade 3/4)", "setting": "[7]; seven patients", "result": 29.2, "unit": "%"}, {"measurement": "patients with acute renal failure", "setting": "[7]; severe", "result": "two"}, {"measurement": "Median PFS", "setting": "[8]; 4 patients treated at level 1", "result": 2.9, "unit": "months"}, {"measurement": "Median OS", "setting": "[8]; [19]", "result": 22.3, "unit": "months"}, {"measurement": "Median PFS", "setting": "[8]; [19]", "result": 9.3, "unit": "months"}, {"measurement": "Median PFS", "setting": "[8]; 13 patients treated at level 2", "result": 7.4, "unit": "months"}, {"measurement": "Median overall survival (OS)", "setting": "[8]; 13 patients treated at level 2", "result": 20.0, "unit": "months"}, {"measurement": "patients with best response of partial response", "setting": "[8]; VD as second line therapy, eleven of 12", "result": 92, "unit": "%"}, {"measurement": "Median overall survival (OS)", "setting": "[8]; all patients", "result": 18.1, "unit": "months"}, {"measurement": "grade 4 adverse event suspected to be treatment-related", "setting": "[8]; cohort VD Level 1", "result": "No grade 4 adverse event"}, {"measurement": "patients with at least one AE suspected to be treatment-related", "setting": "[8]; cohort VD Level 1, 4 patients", "result": "All patients"}, {"measurement": "patients with at least one AE suspected to be treatment-related", "setting": "[8]; cohort VD Level 2, 8 of 13 patients", "result": 62, "unit": "%"}, {"measurement": "patients with a grade 3 AE suspected to be treatment-related", "setting": "[8]; [20]", "result": 15, "unit": "%"}, {"measurement": "patients with at least one grade 4 AE suspected to be treatment-related", "setting": "[8]; [20]", "result": 15, "unit": "%"}, {"measurement": "patients still alive at the cut-off date", "setting": "[8]; five of 17 VD patients, 31 Mar. 2010", "result": 29, "unit": "%"}, {"measurement": "patients with a very good partial response", "setting": "[8]; intent-to-treat population", "result": "five"}, {"measurement": "response rate (complete response or partial response)", "setting": "[8]; intent-to-treat population", "result": 75, "unit": "%"}, {"measurement": "patients with at least one AE suspected to be treatment-related", "setting": "[8]; [21]", "result": 71, "unit": "%"}, {"measurement": "patients with at least one grade 4 AE suspected to be treatment-related", "setting": "[8]; [21]", "result": 12, "unit": "%"}, {"measurement": "median progression free survival (PFS)", "setting": "[8]; overall VD population", "result": 7.4, "unit": "months"}, {"measurement": "response rate (complete response or partial response)", "setting": "[8]; per-protocol population", "result": 86, "unit": "%"}, {"measurement": "Median OS", "setting": "[8]; t(4;14) negative patients", "result": 25.3, "unit": "months"}, {"measurement": "Median PFS", "setting": "[8]; t(4;14) negative patients", "result": 9.3, "unit": "months"}, {"measurement": "patients with best response of partial response", "setting": "[8]; t(4;14) negative patients, three of five", "result": 60, "unit": "%"}, {"measurement": "Median OS", "setting": "[8]; t(4;14) positive patients", "result": 17.1, "unit": "months"}, {"measurement": "Median PFS", "setting": "[8]; t(4;14) positive patients", "result": 5.9, "unit": "months"}, {"measurement": "patients with best response of partial response", "setting": "[8]; t(4;14) positive patients, 8 out of 10", "result": 80, "unit": "%"}, {"measurement": "concentrations at which the kinase is inhibited", "setting": "[9]", "result": "submicromolar"}, {"measurement": "proliferation", "setting": "[10]", "result": "inhibited"}, {"measurement": "anti-proliferative interaction with dexamethasone", "setting": "[11]; combination with dexamethasone", "result": "synergy"}, {"measurement": "reduction of proliferation compared to dexamethasone alone", "setting": "[11]; masitinib added to dexamethasone, 5 times less dexamethasone", "result": 2, "unit": "fold"}, {"measurement": "effect on proliferation", "setting": "[12]", "result": "no effect"}, {"measurement": "phosphorylation of the intracellular domain of FGFR3", "setting": "[13]", "result": "inhibited"}]}]}
